The test system of this experiment is Penicillium italicum. Nature of the experiment: Treatment of wounded oranges inoculated with Penicillium italicum (Examples 7, 8). Format: in vivo. Particulars: 20° C., 250 ppm natamycin, 400 ppm boscalid or both. Here is the method: Ten fresh, organic oranges were used per treatment. Each orange was soaked in a 180 ppm hypochlorite solution for 10 minutes, then rinsed thoroughly with fresh tap water and dried. The peel of each disinfected orange was wounded once using a cork borer according to the method described by de Lapeyre de Bellaire and Dubois (1987). Subsequently, each wound was inoculated with 10 μl of a Penicillium italicum suspension containing 1×10^5 of spores/ml. After incubation for 3 hours at 20° C., each wound and the orange peel area of 1 cm around the wound was treated with in total 150 μl of a freshly prepared aqueous antifungal composition comprising either 500 ppm natamycin (DSM Food Specialties, Delft, The Netherlands), 800 ppm boscalid or both. Each antifungal composition also comprised 3.2% (w/w) beeswax, 0.8% (w/w) glycerol, 0.7% (w/w) polyoxyethylene sorbitan monostearate (Tween 60), 0.2% (w/w) polyoxyethylene sorbitan monooleate (Tween 80), 0.05% (w/w) methylhydroxyethyl-cellulose (MHEC), 0.03% (w/w) anti-foaming agent, 0.02% (w/w) xanthan gum, 0.02% (w/w) citric acid, 0.01% (w/w) lactic acid and 0.01% potassium sorbate. A composition without natamycin or boscalid was used as control. […] The treated oranges were incubated in a closed box in the dark at 20° C. and assessed on mould growth during a 17-day incubation period. The antifungal activity (in %) of the individual and combined active ingredients was determined by calculating the reduction in mould growth observed on the oranges treated with the antifungal composition in comparison to the mould growth on the oranges treated with the control composition according to the Colby method (Colby, 1967) described in Example 5.
The experiment was conducted as described in Example 7, except for the fact that each wounded and inoculated orange was treated with 150 μl of a freshly prepared aqueous antifungal composition comprising either 250 ppm natamycin (DSM Food Specialties, Delft, The Netherlands), 400 ppm boscalid or both. The treated oranges were incubated in a closed box in the dark at 20° C. and assessed on mould growth during a 18-day incubation period. During incubation, the treated oranges were assessed on mould growth according to the method described in Example 7.

Consider `C[C@@H]1C/C=C/C=C/C=C/C=C/[C@H](O[C@@H]2O[C@H](C)[C@@H](O)[C@H](N)[C@@H]2O)C[C@@H]2O[C@](O)(C[C@@H](O)C[C@H]3O[C@@H]3/C=C/C(=O)O1)C[C@H](O)[C@H]2C(=O)O` [Natamycin, natamycin], for which the “Observed antifungal activity O (%)” value reads like this: (11 days) 69%; (12 days) 66%; (13 days) 62%; (14 days) 51%; (17 days) 39%; (18 days) 34%.
